“And” between values parts separate entries of the source, which are not always exact repeats. Equal values may be shown once. Inconclusive results and toxic doses are left out. No stated cut-off is given here; in the data, active means T/C of 150% or more; inactive means T/C below 125%. Square brackets hold non-standard residues; d marks the D form. Peptide text beside a SMILES is read from it. * marks the point of attachment. ξ: configuration not given here. ξY = NC(Cc1ccc(O)cc1)C(=O)O; Cbz = O=C(OCc1ccccc1)*
Test system: L1210 leukemia ip in BDF1 mice, survival T/C
Assay: NCI In Vivo Anticancer Drug Screen. Data for tumor model L1210 Leukemia (intraperitoneal) in B6D2F1 (BDF1) mice
Conditions: endpoint: mean survival time, higher = longer survival
Method in brief: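 Ratio derived from survival: compound-dosed mice over vehicle-dosed mice, all bearing a transplantable tumor.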

[1] = dose: 100.0 mg/kg/injection, schedule: Q01DX001 (ip), vehicle: saline
[2] = dose: 100.0 mg/kg/injection, schedule: Q01DX001 (ip), vehicle: carboxymethylcellulose (CMC)
[3] = dose: 200.0 mg/kg/injection, schedule: Q01DX001 (ip), vehicle: carboxymethylcellulose (CMC)
[4] = dose: 400.0 mg/kg/injection, schedule: Q01DX001 (ip), vehicle: carboxymethylcellulose (CMC)
[5] = dose: 100.0 mg/kg/injection, schedule: Q01DX009 (ip), vehicle: Klucel (hydroxypropylcellulose) (HPC)
[6] = dose: 100.0 mg/kg/injection, schedule: Q04DX003 (ip), vehicle: Klucel (hydroxypropylcellulose) (HPC)
[7] = dose: 200.0 mg/kg/injection, schedule: Q01DX009 (ip), vehicle: Klucel (hydroxypropylcellulose) (HPC)
[8] = dose: 200.0 mg/kg/injection, schedule: Q04DX003 (ip), vehicle: Klucel (hydroxypropylcellulose) (HPC)
[9] = dose: 400.0 mg/kg/injection, schedule: Q01DX009 (ip), vehicle: Klucel (hydroxypropylcellulose) (HPC)
[10] = dose: 400.0 mg/kg/injection, schedule: Q04DX003 (ip), vehicle: Klucel (hydroxypropylcellulose) (HPC)
[11] = dose: 100.0 mg/kg/injection, schedule: Q01DX009 (ip), vehicle: saline
[12] = dose: 100.0 mg/kg/injection, schedule: Q04DX003 (ip), vehicle: saline with Tween-80
[13] = dose: 200.0 mg/kg/injection, schedule: Q01DX009 (ip), vehicle: saline
[14] = dose: 200.0 mg/kg/injection, schedule: Q04DX003 (ip), vehicle: saline with Tween-80
[15] = dose: 400.0 mg/kg/injection, schedule: Q01DX009 (ip), vehicle: saline
[16] = dose: 400.0 mg/kg/injection, schedule: Q04DX003 (ip), vehicle: saline with Tween-80
[17] = dose: 100.0 mg/kg/injection, schedule: Q04DX003 (ip), vehicle: saline
[18] = dose: 200.0 mg/kg/injection, schedule: Q01DX001 (ip), vehicle: saline
[19] = dose: 200.0 mg/kg/injection, schedule: Q04DX003 (ip), vehicle: saline
[20] = dose: 400.0 mg/kg/injection, schedule: Q01DX001 (ip), vehicle: saline
[21] = dose: 400.0 mg/kg/injection, schedule: Q04DX003 (ip), vehicle: saline
[22] = dose: 50.0 mg/kg/injection, schedule: Q01DX009 (ip), vehicle: saline
[23] = dose: 25.0 mg/kg/injection, schedule: Q01DX009 (ip), vehicle: saline with Tween-80
[24] = dose: 100.0 mg/kg/injection, schedule: Q01DX009 (ip), vehicle: saline with Tween-80

Measured: T/C

CCOC(=O)CNCc1ccc(Cl)c(Cl)c1
inactive: dose: 50.0 mg/kg/injection, schedule: Q04DX003 (ip), vehicle: water 106 % of control | dose: 100.0 mg/kg/injection, schedule: Q04DX003 (ip), vehicle: water 95 % of control and 106 % of control | dose: 200.0 mg/kg/injection, schedule: Q04DX003 (ip), vehicle: water 87 % of control and 92 % of control

C[n+]1cccc(CNC(=O)COc2ccc(Cl)c(Cl)c2)c1
inactive: dose: 25.0 mg/kg/injection, schedule: Q01DX001 (ip), vehicle: saline 106 % of control | dose: 50.0 mg/kg/injection, schedule: Q01DX001 (ip), vehicle: saline 103 % of control | [1] 97 % of control and 109 % of control

COc1ccccc1NC(=O)NCCO
inactive: [2] 103 % of control | [3] 95 % of control | [4] 103 % of control

CC1C(N2CCOCC2)CS1(=O)=O (centres undefined)
inactive: [5] 92 % of control | [6] 93 % of control | [7] 94 % of control | [8] 98 % of control | [9] 103 % of control | [10] 98 % of control

Cc1c2c(cc3c1[nH]c1ccccc13)C(C(F)(F)F)=NCC2
inactive: dose: 16.0 mg/kg/injection, schedule: Q01DX005 (ip), vehicle: saline 97 % of control | dose: 32.0 mg/kg/injection, schedule: Q01DX005 (ip), vehicle: saline 100 % of control | dose: 64.0 mg/kg/injection, schedule: Q01DX005 (ip), vehicle: saline 100 % of control | dose: 128.0 mg/kg/injection, schedule: Q01DX005 (ip), vehicle: saline 101 % of control

CCCCCCCC/C=C\CCCCCCCCNP(=O)(OCCCCCCCCCCCC)OCCCCCCCCCCCC
inactive: dose: 100.0 mg/kg/injection, schedule: Q04DX002 (ip), vehicle: saline with Tween-80 101 % of control | dose: 400.0 mg/kg/injection, schedule: Q04DX002 (ip), vehicle: saline with Tween-80 86 % of control

O=C1c2cccc3c2C2(C45c6c7cccc6C(=O)c6cccc(c64)C(=O)c4cccc(c45)C7=O)c4c1cccc4C(=O)c1cccc(c12)C3=O
inactive: [11] 103 % of control | [12] 94 % of control | [13] 95 % of control | [14] 107 % of control | [15] 95 % of control | [16] 94 % of control

COc1ccc(NC(=O)c2ccc(Cl)cc2Cl)c(OC)c1
inactive: dose: 100.0 mg/kg/injection, schedule: Q04DX002 (ip), vehicle: Klucel (hydroxypropylcellulose) (HPC) 102 % of control | dose: 200.0 mg/kg/injection, schedule: Q04DX002 (ip), vehicle: Klucel (hydroxypropylcellulose) (HPC) 97 % of control | dose: 400.0 mg/kg/injection, schedule: Q04DX002 (ip), vehicle: Klucel (hydroxypropylcellulose) (HPC) 102 % of control

N=C(N)C[n+]1ccccc1
inactive: [1] 98 % of control | [17] 95 % of control | [18] 109 % of control | [19] 111 % of control | [20] 104 % of control | [21] 89 % of control

O=[N+]([O-])c1cc(O)cc(F)c1
inactive: [2] 100 % of control

Nc1ccc(CCC(=O)Nc2ccc(S(=O)(=O)F)cc2)c(Cl)c1
inactive: dose: 100.0 mg/kg/injection, schedule: Q01DX001 (ip), vehicle: saline with Tween-80 101 % of control | dose: 200.0 mg/kg/injection, schedule: Q01DX001 (ip), vehicle: saline with Tween-80 93 % of control | dose: 400.0 mg/kg/injection, schedule: Q01DX001 (ip), vehicle: saline with Tween-80 88 % of control

CC(=O)/C=N/NC(=O)C(O)C(O)C(O)C(O)CO (centres undefined)
inactive: [17] 102 % of control | [19] 94 % of control | [21] 91 % of control

CCOC(=O)C(Cc1ccc(O)cc1)NC(=O)CNC(=O)OCc1ccccc1 (stereo not drawn) (Cbz-Gly-[ξY]-OEt)
inactive: [12] 106 % of control | [14] 95 % of control | [16] 96 % of control

O=C(O)CC(c1ccccc1)c1ccccc1
inactive: [5] 98 % of control | [6] 94 % of control | [7] 97 % of control | [8] 107 % of control | [9] 109 % of control | [10] 107 % of control

O=C(O)C(Cl)Cc1cnc[nH]1 (centres undefined)
inactive: [22] 100 % of control | [11] 100 % of control | [13] 103 % of control

CCN(CC)CCCCCCn1c2ccccc2c2c(C)c3cnccc3c(C)c21
inactive: [23] 108 % of control | dose: 50.0 mg/kg/injection, schedule: Q01DX009 (ip), vehicle: saline with Tween-80 102 % of control | [24] 105 % of control

CC(C)C(NC(=O)C(F)(F)F)C(=O)O (centres undefined)
inactive: dose: 87.5 mg/kg/injection, schedule: Q04DX003 (ip), vehicle: saline 90 % of control | dose: 175.0 mg/kg/injection, schedule: Q04DX003 (ip), vehicle: saline 89 % of control

O=C(OCCN1CCCC1)C(c1ccccc1)C1(O)CCCC1 (centres undefined)
inactive: dose: 25.0 mg/kg/injection, schedule: Q01DX009 (ip), vehicle: saline 103 % of control | dose: 25.0 mg/kg/injection, schedule: Q04DX003 (ip), vehicle: saline 104 % of control | [22] 102 % of control | dose: 50.0 mg/kg/injection, schedule: Q04DX003 (ip), vehicle: saline 101 % of control | [11] 117 % of control | [17] 96 % of control and 97 % of control

CCOC(=O)C1CCC(=O)NC1=O (centres undefined)
inactive: [11] 111 % of control | [17] 98 % of control | [13] 108 % of control | [19] 102 % of control | [15] 101 % of control | [21] 104 % of control

CN(CC(=O)C(C(N)=O)c1ccccc1)c1ccccc1 (centres undefined)
inactive: dose: 50.0 mg/kg/injection, schedule: Q01DX001 (ip), vehicle: carboxymethylcellulose (CMC) 96 % of control | [2] 93 % of control | [3] 93 % of control | [4] 102 % of control

CSc1ccccc1NC(=O)NCCCl
inactive: [11] 100 % of control | [13] 98 % of control

COc1cc2c(cc1OC)C1C(O)C(OC)C=C3CCN(C2)C31 (centres undefined)
inactive: [1] 100 % of control | [18] 97 % of control | [20] 103 % of control

CC1CCC(C)C1NC1=NCCO1 (centres undefined)
inactive: dose: 6.25 mg/kg/injection, schedule: Q01DX009 (ip), vehicle: saline with Tween-80 90 % of control | dose: 12.5 mg/kg/injection, schedule: Q01DX009 (ip), vehicle: saline with Tween-80 95 % of control | [23] 90 % of control | dose: 25.0 mg/kg/injection, schedule: Q04DX003 (ip), vehicle: saline with Tween-80 93 % of control | dose: 50.0 mg/kg/injection, schedule: Q04DX003 (ip), vehicle: saline with Tween-80 93 % of control | [12] 87 % of control

CCN(C(=O)COc1ccc(Cl)cc1Cl)c1ccccc1C
inactive: [24] 106 % of control | [12] 105 % of control | dose: 200.0 mg/kg/injection, schedule: Q01DX009 (ip), vehicle: saline with Tween-80 107 % of control | [14] 102 % of control | dose: 400.0 mg/kg/injection, schedule: Q01DX009 (ip), vehicle: saline with Tween-80 98 % of control | [16] 93 % of control

O=S(=O)(CC(Cl)c1ccccc1)c1ccc(Br)cc1 (centres undefined)
inactive: [1] 94 % of control | [17] 94 % of control | [18] 92 % of control | [19] 96 % of control | [20] 92 % of control | [21] 94 % of control

Cc1ccc(C2(O)CCN(CCCC(=O)c3ccc(F)cc3)CC2)cc1
inactive: dose: 3.12 mg/kg/injection, schedule: Q01DX009 (ip), vehicle: Klucel (hydroxypropylcellulose) (HPC) 101 % of control | dose: 6.25 mg/kg/injection, schedule: Q01DX009 (ip), vehicle: Klucel (hydroxypropylcellulose) (HPC) 104 % of control | dose: 12.5 mg/kg/injection, schedule: Q01DX009 (ip), vehicle: Klucel (hydroxypropylcellulose) (HPC) 101 % of control | dose: 25.0 mg/kg/injection, schedule: Q01DX009 (ip), vehicle: Klucel (hydroxypropylcellulose) (HPC) 113 % of control | dose: 50.0 mg/kg/injection, schedule: Q01DX009 (ip), vehicle: Klucel (hydroxypropylcellulose) (HPC) 104 % of control

From PubChem BioAssay AID248 (DTP/NCI, 2004)
